Data published in PMC6522510 (Nature Communications, 2019).
Like-named read-outs stand apart in the source and are kept apart here. Numbered stars: 1 amine (or outer) side, 2 acyl side, 3 side chain; on linkers, the order of the positions; unused ones are H or OH. Bridge positions count the residues as written; N and C are the ends. Square brackets hold non-standard residues; d marks the D form. Peptide text beside a SMILES is read from it. I, II: the chains in the order shown. Actinocin(9to1) = Cc1c2oc3c(C)ccc(C(=O)[*:1])c3nc-2c(C(=O)[*:2])c(N)c1=O; NMeV = CN[C@H](C(=O)O)C(C)C; Sar = CNCC(=O)O

Tests used:
Test in all cases: Secondary dose-response HTS, Cell Titer Glo; call rule not given here
Format in all cases: cell-based, human
M07e = system: M07e
CMS = details: for EC50: Homo sapiens
MOLM-13 = system: MOLM-13
ML2 = system: ML2
CHRF288-11 = system: CHRF288-11
MV4-11 = system: MV4-11
CMK = details: CMK
U937 = system: U937
[1] = secondary high-throughput screen, M07e
[2] = secondary high-throughput screen, CMS
[3] = secondary high-throughput screen, MOLM-13
[4] = secondary high-throughput screen, ML-2
[5] = secondary high-throughput screen, CHRF288-11
[6] = secondary high-throughput screen, MV4-11
[7] = secondary high-throughput screen
[8] = secondary high-throughput screen, U937
[9] = secondary high-throughput screen, MOLM-13, read-out: average effective concentration, MOLM-13
[10] = Homo sapiens, M-07e, secondary high-throughput screen, M07e, read-out: average effective concentration, M07e
[11] = HTS, read-out: average effective concentration, CMS
[12] = Homo sapiens, secondary high-throughput screen, MOLM-13, read-out: average effective concentration, MOLM-13
[13] = Homo sapiens, secondary high-throughput screen, ML-2, read-out: average effective concentration, ML-2
[14] = Homo sapiens, HTS, secondary high-throughput screen, CHRF288-11, read-out: average effective concentration, CHRF288-11
[15] = Homo sapiens, secondary high-throughput screen, MV4-11, read-out: average effective concentration, MV4-11
[16] = Homo sapiens, read-out: average effective concentration, CMK
[17] = Homo sapiens, U-937, secondary high-throughput screen, U937, read-out: average effective concentration, U937
[18] = secondary high-throughput screen, M07e, read-out: average effective concentration, M07e
[19] = secondary high-throughput screen, ML-2, read-out: average effective concentration, ML-2
[20] = secondary high-throughput screen, U937, read-out: average effective concentration, U937
[21] = HTS, secondary high-throughput screen, CMS, read-out: average effective concentration, CMS
[22] = Homo sapiens, secondary high-throughput screen, read-out: average effective concentration, CMK

Compound | average effective concentration, M07e (M07e; [1]) | average effective concentration, CMS (CMS; [2]) | average effective concentration, MOLM-13 (MOLM-13; [3]) | average effective concentration, ML-2 (ML2; [4]) | average effective concentration, CHRF288-11 (CHRF288-11; [5]) | average effective concentration, MV4-11 (MV4-11; [6]) | average effective concentration, CMK (CMK; [7]) | average effective concentration, U937 (U937; [8]) | also measured
N[C@H](CCC(=O)N[C@@H](Cc1c[nH]c2ccccc12)C(=O)O)C(=O)O [GOLOTIMOD] | Inactive | Inactive | Inactive | Inactive | Inactive | Inactive | Inactive | Inactive | 
O=C(NC(NC(=S)Nc1ccc(F)c([N+](=O)[O-])c1)C(Cl)(Cl)Cl)C(c1ccccc1)c1ccccc1 (centres unmarked) [CGK 733] | Inactive | Inactive | Inactive | Inactive | Inactive | Inactive | Inactive | Inactive | 
O=[N+]([O-])c1c(Nc2cc(F)cc(Cl)c2)ccc2nonc12 [HIF-C2] | Inactive | Inactive |  | Inactive | Inactive | Inactive | Inactive | Inactive | EC50 (MOLM-13; [9]): 13 nM
CC1(COc2ccc3c(c2)ncn3-c2ccc3cccc(N4CCC(N)CC4)c3n2)COC1 [CRENOLANIB] |  |  |  |  |  |  |  |  | EC50 (M07e; [10]): > 10000 nM; EC50 (CMS; [11]): 8200 nM; EC50 (MOLM-13; [12]): 100 nM; EC50 (ML2; [13]): 3600 nM; EC50 (CHRF288-11; [14]): 770 nM; EC50 (MV4-11; [15]): 72 nM; EC50 (CMK; [16]): 6600 nM; EC50 (U937; [17]): 5000 nM
Cc1ccc(C(=O)COC(=O)c2cccc(NC(=O)c3ccc([N+](=O)[O-])cc3[N+](=O)[O-])c2)cc1 [FM19G11] | Inactive | Inactive | Inactive | Inactive | Inactive | Inactive | Inactive | Inactive | 
Cn1c(/C=C/C(=O)NO)ccc1/C=C/C(=O)c1cccc(F)c1 [MC1568] |  | Inactive | Inactive |  |  | Inactive | Inactive |  | EC50 (M07e; [18]): 460 nM; EC50 (ML2; [19]): 4300 nM; EC50 (CHRF288-11; secondary high-throughput screen, CHRF288-11, read-out: average effective concentration, CHRF288-11): 4900 nM; EC50 (U937; [20]): 3400 nM
CN(C)C1CCN(C(=O)c2ccc(NC(=O)Nc3ccc(-c4nc(N5CCOCC5)nc(N5CCOCC5)n4)cc3)cc2)CC1 [PF-05212384] | Inactive | Inactive |  | Inactive | Inactive |  |  |  | EC50 (MOLM-13; [9]): 190 nM; EC50 (MV4-11; secondary high-throughput screen, MV4-11, read-out: average effective concentration, MV4-11): 47 nM; EC50 (CMK; secondary high-throughput screen, read-out: average effective concentration, CMK): 7700 nM; EC50 (U937; [20]): 24 nM
(-)-NUTLIN-3 |  | Inactive |  |  | Inactive | Inactive | Inactive | Inactive | EC50 (M07e; [18]): 160 nM; EC50 (MOLM-13; [9]): 940 nM; EC50 (ML2; [19]): 4900 nM
SCR7 | Inactive | Inactive | Inactive | Inactive | Inactive | Inactive | Inactive | Inactive | 
COC(=O)[C@H](CCSC)NC(=O)c1ccc(NC[C@@H](N)CS)cc1-c1ccccc1 [FTI-277] | Inactive | Inactive | Inactive | Inactive | Inactive | Inactive | Inactive | Inactive | 
CC[C@@]1(O)C(=O)OCc2c1cc1n(c2=O)Cc2cc3c(CN(C)C)c(O)ccc3nc2-1 [TOPOTECAN] |  |  |  |  |  |  |  |  | EC50 (M07e; [10]): 1700 nM; EC50 (CMS; [21]): 7200 nM; EC50 (MOLM-13; [12]): 120 nM; EC50 (ML2; [13]): 250 nM; EC50 (CHRF288-11; [14]): 500 nM; EC50 (MV4-11; [15]): 170 nM; EC50 (CMK; [22]): 470 nM; EC50 (U937; [17]): 690 nM
CO[C@@]12[C@H](COC(N)=O)C3=C(C(=O)C(C)=C(N)C3=O)N1C[C@@H]1N[C@@H]12 [MITOMYCIN C] |  |  |  |  |  |  |  |  | EC50 (M07e; [10]): 9400 nM; EC50 (CMS; [21]): 10000 nM; EC50 (MOLM-13; [12]): 2800 nM; EC50 (ML2; [13]): 2400 nM; EC50 (CHRF288-11; [14]): 750 nM; EC50 (MV4-11; [15]): 4100 nM; EC50 (CMK; [22]): 770 nM; EC50 (U937; [17]): 4400 nM
Cc1c2oc3c(C)ccc(C(=O)N[C@@H]4C(=O)N[C@H](C(C)C)C(=O)N5CCC[C@H]5C(=O)N(C)CC(=O)N(C)[C@@H](C(C)C)C(=O)O[C@@H]4C)c3nc-2c(C(=O)N[C@@H]2C(=O)N[C@H](C(C)C)C(=O)N3CCC[C@H]3C(=O)N(C)CC(=O)N(C)[C@@H](C(C)C)C(=O)O[C@@H]2C)c(N)c1=O [Dactinomycin, reference compound] (I: T[dV]P[Sar][NMeV] / II: T[dV]P[Sar][NMeV]; ester I:1-I:C, II:1-II:C; linker I:N-II:N via Actinocin(9to1)) |  |  |  |  |  |  |  |  | EC50 (M07e; Homo sapiens, M-07e, secondary HTS, 72 h, average of triplicate, read-out: EC50 M07e): 1 nM; EC50 (CMS; [21]): 36 nM; EC50 (CMS; secondary HTS, 72 h, average of triplicate, read-out: EC50 CMS): 40 nM; EC50 (MOLM-13; Homo sapiens, MOLM-13, secondary HTS, 72 h, average of triplicate, read-out: EC50 MOLM-13): 30 nM; EC50 (MOLM-13; [12]): 29 nM; EC50 (ML2; Homo sapiens, ML-2, secondary HTS, 72 h, average of triplicate, read-out: EC50 ML2): 1 nM; EC50 (CHRF288-11; Homo sapiens, HTS, 72 h, secondary HTS, 72 h, average of triplicate, read-out: EC50 CHRF288-11): 1 nM; EC50 (MV4-11; Homo sapiens, MV4-11, secondary HTS, 72 h, average of triplicate, read-out: EC50 MV4-11): 40 nM; EC50 (MV4-11; [15]): 43 nM; EC50 (CMK; Homo sapiens, secondary HTS, 72 h, average of triplicate, read-out: EC50 CMK): 1 nM; EC50 (U937; Homo sapiens, U-937, secondary HTS, 72 h, average of triplicate, read-out: EC50 U937): 1 nM
Cc1ccc(C(=O)Nc2ccc(CN3CCN(C)CC3)c(C(F)(F)F)c2)cc1C#Cc1cnc2cccnn12 [PONATINIB] |  |  |  |  |  |  |  |  | EC50 (M07e; Homo sapiens, M-07e, read-out: average effective concentration, M07e): 7000 nM; EC50 (CMS; [11]): 6700 nM; EC50 (MOLM-13; Homo sapiens, MOLM-13, read-out: average effective concentration, MOLM-13): 17 nM; EC50 (ML2; Homo sapiens, ML-2, read-out: average effective concentration, ML-2): 5300 nM; EC50 (CHRF288-11; Homo sapiens, HTS, read-out: average effective concentration, CHRF288-11): 1000 nM; EC50 (CHRF288-11; read-out: average effective concentration, CHRF288-11): 980 nM; EC50 (MV4-11; Homo sapiens, MV4-11, read-out: average effective concentration, MV4-11): 11 nM; EC50 (CMK; [16]): 1600 nM; EC50 (U937; Homo sapiens, U-937, read-out: average effective concentration, U937): 2500 nM
